In PubChem BioAssay AID1996:
In brackets after ≈: the same amount, converted by molar mass.

details: buffer; pH 7.4; 200.0 µM

Structure (SMILES) | solubility kinetic
CC(C)Nc1nc2nonc2nc1Nc1ccccc1 | > 40.5 µg/mL
CC(=O)Nc1ccc(S(=O)(=O)NC2CC3CCC2C3)cc1 (stereo not given) | > 46.3 µg/mL
COc1ccccc1NC(=S)NC(=O)CCc1ccccc1 | 0.7 µg/mL (≈ 2.23 µM)
CCC(=O)c1cn(Cc2ccccc2)c2ccccc12 | 1 µg/mL (≈ 3.8 µM)
O=C(c1ccccc1)c1cnc[nH]1 | 25.6 µg/mL (≈ 149 µM)
C[n+]1ccn(CC(=O)c2cccs2)c1.[Br-] | 39 µg/mL

Now from value to compound:

solubility kinetic | Structure (SMILES)
37.3 µg/mL (≈ 128 µM) | Cc1ccc(OCC(=O)NCc2ccco2)c([N+](=O)[O-])n1
< 0.3 µg/mL | Cc1nc(SC(C)C(=O)NC2CCCCC2C)c2c(C)c(C)sc2n1 (stereo not given)
9.2 µg/mL (≈ 27.1 µM) | CN(C1CCS(=O)(=O)C1)S(=O)(=O)c1ccc2ccccc2c1 (stereo not given)
2.1 µg/mL (≈ 7.79 µM) | O=C(c1c[nH]c2ccccc12)C(Cl)c1ccccc1 (stereo not given)
> 57 µg/mL | CCCCOc1cc(C(=O)NCCN(CC)CC)c2ccccc2n1.Cl
> 50 µg/mL | Cc1ccc(S(=O)(=O)NCCNC(=O)c2ccc(C)nc2)cc1
1.3 µg/mL (≈ 4.06 µM) | c1ccc(C2CCC(N3CCN(c4ccccc4)CC3)CC2)cc1 (stereo not given)
17.8 µg/mL (≈ 52.4 µM) | CC1CCCCC1NC(=O)COC(=O)COc1ccccc1Cl (stereo not given)
> 45.5 µg/mL | CCCNC(=O)CN1C(=O)NC(CCc2ccccc2)C1=O (stereo not given)
